Experimental findings from US12187742B2 (XRAD Therapeutics, Inc., priority 2018, dated 2025) are described below.

One test addresses DNA-PK (Homo sapiens (Human), UniProt P78527). Nature of the test: DNA-PK Enzyme-Linked Immunosorbent Assay (phosphorylation of GST-p53 (1-101) peptide). The conditions noted are these: ELISA. The test is classed as biochemical. The gist of the method:
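Inhibition measured by 450 nm absorbance after HRP/TMB detection of phospho-Ser15 on immobilized GST-p53 (1-101). The kinase reaction used 0.1 μg/mL DNA-PK and 20 μM ATP, 1 h at 25 °C. Ten 3-fold compound dilutions, top final concentration 100 nM.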
(In general: ELISA stands for enzyme-linked immunosorbent assay.)

For another test, the target named is ATM (Homo sapiens (Human), UniProt Q13315). Description: ATM in Cell Western Assay (pKAP1 in etoposide-treated MCF-7 cells). The test is classed as cell-based. The gist of the method:
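After paraformaldehyde fixation and Triton X-100 permeabilization, immunostained plates were read by infrared scanning (ODYSSEY CLx). Compound was given as 10 doses, 3-fold dilutions from a 1 μM final top concentration.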

[1] abbreviates: MCF-7 cells, etoposide 100 μM, 1 hr, pKAP1 readout.
Where [2] appears, read: pKAP1 in etoposide-treated MCF-7 cells.

Structures can show the parent of a compound that is named as a salt.

Chain of ATM (Q13315 whole entry): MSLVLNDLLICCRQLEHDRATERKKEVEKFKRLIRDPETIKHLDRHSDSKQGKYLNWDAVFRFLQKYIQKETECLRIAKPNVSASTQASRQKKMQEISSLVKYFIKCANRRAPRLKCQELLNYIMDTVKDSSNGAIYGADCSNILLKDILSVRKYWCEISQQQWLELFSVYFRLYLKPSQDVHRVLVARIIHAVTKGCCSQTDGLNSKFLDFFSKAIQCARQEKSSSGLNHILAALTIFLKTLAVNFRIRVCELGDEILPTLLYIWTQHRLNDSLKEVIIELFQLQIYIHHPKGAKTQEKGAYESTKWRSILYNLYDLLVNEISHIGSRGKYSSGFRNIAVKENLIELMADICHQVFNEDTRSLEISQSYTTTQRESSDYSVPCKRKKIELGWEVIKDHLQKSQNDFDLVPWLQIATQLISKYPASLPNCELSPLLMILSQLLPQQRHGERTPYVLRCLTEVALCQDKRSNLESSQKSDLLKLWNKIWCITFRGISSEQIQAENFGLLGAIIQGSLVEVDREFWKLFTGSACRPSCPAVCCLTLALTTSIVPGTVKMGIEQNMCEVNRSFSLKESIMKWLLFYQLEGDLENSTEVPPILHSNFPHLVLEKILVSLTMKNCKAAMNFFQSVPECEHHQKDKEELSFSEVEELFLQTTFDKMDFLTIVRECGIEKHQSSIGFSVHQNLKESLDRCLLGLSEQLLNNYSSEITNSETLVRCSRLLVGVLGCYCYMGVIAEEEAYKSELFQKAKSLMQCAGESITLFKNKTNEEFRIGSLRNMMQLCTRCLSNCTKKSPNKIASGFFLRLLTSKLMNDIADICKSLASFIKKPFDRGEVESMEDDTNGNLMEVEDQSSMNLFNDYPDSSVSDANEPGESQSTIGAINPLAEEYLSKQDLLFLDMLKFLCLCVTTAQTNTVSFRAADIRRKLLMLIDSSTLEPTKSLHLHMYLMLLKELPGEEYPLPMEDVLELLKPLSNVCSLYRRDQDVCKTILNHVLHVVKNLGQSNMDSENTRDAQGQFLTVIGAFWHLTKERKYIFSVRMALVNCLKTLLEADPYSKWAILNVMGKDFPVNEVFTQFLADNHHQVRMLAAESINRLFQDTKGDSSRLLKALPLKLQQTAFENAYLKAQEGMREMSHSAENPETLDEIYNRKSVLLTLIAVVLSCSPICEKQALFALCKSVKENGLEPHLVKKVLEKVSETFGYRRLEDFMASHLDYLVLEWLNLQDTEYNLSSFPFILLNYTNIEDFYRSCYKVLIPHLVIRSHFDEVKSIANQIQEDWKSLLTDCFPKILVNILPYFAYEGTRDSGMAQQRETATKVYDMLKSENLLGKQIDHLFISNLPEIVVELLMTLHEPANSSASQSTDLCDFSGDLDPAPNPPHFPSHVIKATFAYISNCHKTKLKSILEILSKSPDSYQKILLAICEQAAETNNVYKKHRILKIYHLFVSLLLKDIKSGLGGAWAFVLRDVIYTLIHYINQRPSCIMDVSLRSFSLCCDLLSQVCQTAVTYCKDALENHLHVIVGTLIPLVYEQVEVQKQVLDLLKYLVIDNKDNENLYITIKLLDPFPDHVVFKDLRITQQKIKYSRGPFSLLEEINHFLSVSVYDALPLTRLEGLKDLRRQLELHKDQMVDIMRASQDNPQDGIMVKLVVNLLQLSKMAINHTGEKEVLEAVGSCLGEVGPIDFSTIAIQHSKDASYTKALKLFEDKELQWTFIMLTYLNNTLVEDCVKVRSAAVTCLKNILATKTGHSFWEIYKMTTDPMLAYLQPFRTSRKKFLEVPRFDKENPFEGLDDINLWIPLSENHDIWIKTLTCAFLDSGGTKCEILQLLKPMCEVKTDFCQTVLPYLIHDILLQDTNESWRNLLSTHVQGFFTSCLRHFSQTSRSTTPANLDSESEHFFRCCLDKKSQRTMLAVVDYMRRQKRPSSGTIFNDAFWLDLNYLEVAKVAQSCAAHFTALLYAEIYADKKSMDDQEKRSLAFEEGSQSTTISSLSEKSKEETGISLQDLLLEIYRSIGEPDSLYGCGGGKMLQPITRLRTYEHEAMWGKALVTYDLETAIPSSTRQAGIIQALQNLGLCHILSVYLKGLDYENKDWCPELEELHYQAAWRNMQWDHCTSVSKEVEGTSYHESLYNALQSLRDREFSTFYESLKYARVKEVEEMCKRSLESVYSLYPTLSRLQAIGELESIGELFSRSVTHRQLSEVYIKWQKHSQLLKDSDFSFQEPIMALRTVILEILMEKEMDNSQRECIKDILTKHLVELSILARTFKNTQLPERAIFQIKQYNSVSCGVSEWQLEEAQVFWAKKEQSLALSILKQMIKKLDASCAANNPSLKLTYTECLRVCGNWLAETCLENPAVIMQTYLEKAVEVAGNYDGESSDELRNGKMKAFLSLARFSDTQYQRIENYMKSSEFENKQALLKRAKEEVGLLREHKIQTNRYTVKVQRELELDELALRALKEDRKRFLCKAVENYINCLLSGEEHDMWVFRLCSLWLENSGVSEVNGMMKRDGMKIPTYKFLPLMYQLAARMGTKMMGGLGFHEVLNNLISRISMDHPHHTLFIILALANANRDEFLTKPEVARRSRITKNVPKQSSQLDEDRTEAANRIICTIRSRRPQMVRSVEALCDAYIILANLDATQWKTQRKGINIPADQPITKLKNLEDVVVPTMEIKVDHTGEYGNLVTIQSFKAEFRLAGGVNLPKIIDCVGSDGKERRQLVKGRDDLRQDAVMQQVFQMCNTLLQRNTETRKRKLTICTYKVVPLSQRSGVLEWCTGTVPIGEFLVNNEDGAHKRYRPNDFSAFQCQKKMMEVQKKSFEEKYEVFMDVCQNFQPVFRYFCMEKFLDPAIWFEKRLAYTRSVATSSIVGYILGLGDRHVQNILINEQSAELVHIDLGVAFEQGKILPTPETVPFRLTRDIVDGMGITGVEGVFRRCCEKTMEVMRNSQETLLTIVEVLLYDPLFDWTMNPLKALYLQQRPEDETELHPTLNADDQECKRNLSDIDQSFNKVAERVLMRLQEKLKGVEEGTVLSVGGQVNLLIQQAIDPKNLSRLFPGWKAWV

The term IC50 denotes the concentration needed to halve the response being measured. The low end stands for greater potency in that assay, the high end for weaker potency in that assay. With `Cc1ccc(S(=O)(=O)Nc2cc(-c3ccc4ncc5c(c4c3)C3(CCC3)C(=O)N5C)cnc2N2CCC(N3CCOCC3)CC2)cc1` [Example 167, 4-Methyl-N-(5-(3′-methyl-2′-oxo-2′,3′-dihydrospiro[cyclobutane-1,1′-pyrrolo[2,3-c]quinolin]-8′-yl)-2-(4-morpholinopiperidin-l-yl)pyridin-3-yl)benzenesulfonamide hydrochloride], the 50% inhibitory concentration (IC50) on DNA-PK (ATP 20 μM) and against ATM (setting [1]) was 1 to 100 nM throughout.
For the compound `CN(C)CCCOc1ncc(-c2ccc3ncc4c(c3c2)C2(CC2)C(=O)N4C)cc1NS(=O)(=O)c1ccc(C(C)(C)C)cc1` [Example 127], the 50% inhibitory concentration (IC50) against DNA-PK (ATP 20 μM) and against ATM (setting [1]) was 1 to 100 nM throughout.
With `CN(C)CCCOc1ncc(-c2ccc3ncc4c(c3c2)C2(COC2)C(=O)N4C)cc1NS(=O)(=O)C1CC1` [Example 47, N-(2-(3-(Dimethylamino)propoxy)-5-(3′-methyl-2′-oxo-2′,3′-dihydrospiro [oxetane-3,1′-pyrrolo[2,3-c]quinolin]-8′-yl)pyridin-3-yl)cyclopropanesulfonamide], the IC50 at DNA-PK (ATP 20 μM) and against ATM (setting [1]) was 1 to 100 nM in each case.
Take `Cc1ncc(S(=O)(=O)Nc2cc(-c3ccc4ncc5c(c4c3)C3(CCC3)C(=O)N5C)cnc2OCCCN(C)C)s1` [Example 289, N-(2-(3-(Dimethylamino)propoxy)-5-(3′-methyl-2′-oxo-2′,3′-dihydrospiro [cyclobutane-1,1′-pyrrolo [2,3-c]quinolin]-8′-yl)pyridin-3-yl)-2-methylthiazole-5-sulfonamide]: the IC50 lay in the range of 0.5 to 1 nM against DNA-PK (ATP 20 μM) and 1 to 100 nM against ATM (setting [1]).
Take `CO[C@H]1C[C@@]2(C1)C(=O)N(C)c1cnc3cc(F)c(-c4cnc(OCCNC(C)C)c(NS(=O)(=O)C5CC5)c4)cc3c12` [Example 388, trans-N-{5-(7′-Fluoro-3-methoxy-3 methyl-2′-oxo-2′,3′-dihydrospiro [cyclobutane-1,1′-pyrrolo[2,3-c]quinolin]-8′-yl)-2-(2-(isopropylamino)ethoxy)pyridin-3-yl)cyclopropanesulfonamide]: the 50% inhibitory concentration (IC50) against DNA-PK (20 μM ATP) and against ATM (setting [2]) was 1 to 100 nM throughout.
In the case of `CN(C)CCCOc1ncc(-c2ccc3ncc4c(c3c2)C2(CCCCC2)C(=O)N4C)cc1NS(=O)(=O)c1ccccc1` [Example 3, N-(2-(3-(Dimethylamino)propoxy)-5-(3′-methyl-2′-oxo-2′,3′-dihydrospiro[cyclohexane-1,1′-pyrrolo[2,3-c]quinolin]-8′-yl)pyridin-3-yl) benzenesulfonamide], the half-maximal inhibitory concentration (IC50) against DNA-PK (ATP 20 μM) and at ATM (setting [1]) was 1 to 100 nM throughout.
Consider `CN(C)CCCOc1ncc(-c2ccc3ncc4c(c3c2)C2(CC2)C(=O)N4C)cc1NS(=O)(=O)N(C)C` [Example 109], for which the IC50 was less than 0.5 nM against DNA-PK (ATP 20 μM) and 1 to 100 nM against ATM (setting [1]).
On the same counts, the results for `CN1C(=O)C2(CCC2)c2c1cnc1ccc(-c3cnc(N4CCC(N5CCCCC5)CC4)c(NS(=O)(=O)c4ccccc4F)c3)cc21` [Example 203] are 0.5 to 1 nM and 1 to 100 nM.
On the same counts, the results for `CN(C)CCCOc1ncc(-c2ccc3ncc4c(c3c2)C2(CCC2)C(=O)N4C)cc1NS(=O)(=O)c1cscn1` [Example 160, N-(2-(3-(Dimethylamino)propoxy)-5-(3′-methyl-2′-oxo-2′,3′-dihydrospiro[cyclobutane-1,1′-pyrrolo[2,3-c]quinolin]-8′-yl)pyridin-3-yl)thiazole-4-sulfonamide hydrochloride] are less than 0.5 nM and 1 to 100 nM.
Consider `CC(C)NCCOc1ncc(-c2cc3c(cc2F)ncc2c3[C@]3(C[C@H](COC(C)C)C3)C(=O)N2C)cc1NS(C)(=O)=O` [Example 410, cis-N-(5-(7′-Fluoro-3-(isopropoxymethyl)-3′-methyl-2′-oxo-2′,3′-dihydrospiro[cyclobutane-1,1′-pyrrolo[2,3-c]quinolin]-8′-yl)-2-(2-(isopropylamino)ethoxy)pyridin-3-yl)methanesulfonamide], for which the IC50 at DNA-PK (20 μM ATP) is less than 0.5 nM; against ATM (setting [2]), 1 to 100 nM.
For `COc1cc([C@H]2C[C@]3(C2)C(=O)N(C)c2cnc4cc(F)c(-c5cnc(OCCNC(C)C)c(NS(C)(=O)=O)c5)cc4c23)ccn1` [Example 432, cis-N-(5-(7′-Fluoro-3-(2-methoxypyridin-4-yl)-3′-methyl-2′-oxo-2′,3′-dihydrospiro[cyclobutane-1,1′-pyrrolo[2,3-c]quinolin]-8′-yl)-2-(2-(isopropylamino)ethoxy)pyridin-3-yl)methanesulfonamide], in that order: 1 to 100 nM and 1 to 100 nM.
Regarding `CN1C(=O)C2(CCC2)c2c1cnc1ccc(-c3cnc(OCCCN4CCCCC4)c(NS(=O)(=O)c4cc(F)cc(Cl)c4)c3)cc21` [Example 196, 3-Chloro-5-fluoro-N-(5-(3′-methyl-2′-oxo-2′,3′-dihydrospiro[cyclobulane-1,1′-pyrrolo[2,3-c]quinolin]-8′-yl)-2-(3-(piperidin-1-yl)propoxy)pyridin-3-yl)benzenesulfonamide hydrochloride], the IC50 on DNA-PK (ATP 20 μM) and against ATM (setting [1]) was 1 to 100 nM throughout.
Turning to `CN1C(=O)C2(CCC2)c2c1cnc1ccc(-c3cnc(OCCCN4CCCCC4)c(NS(=O)(=O)C(F)F)c3)cc21` [Example 302, 1,1-Difluoro-N-(5-(3-methyl-2′-oxo-2′,3′-dihydrospiro[cyclobutane-1,1′-pyrrolo[2,3-c]quinolin]-8-yl)-2-(3-(piperidin-1-yl)propoxy)pyridin-3-yl)methanesulfonamide], the IC50 at DNA-PK (ATP 20 μM) is less than 0.5 nM; at ATM (setting [1]), 1 to 100 nM.
For `CN1C(=O)C2(CC2)c2c1cnc1ccc(-c3cnc(N)nc3)cc21` [Example 48, 8′-(2-Aminopyrimidin-5-yl)-3′-methylspiro [cyclopropane-1,1′-pyrrolo [2,3-c]quinolin]-2′(3′-H)-one], in that order: 0.5 to 1 nM and 1 to 100 nM.
On the same counts, the results for `CCNC1CN(c2ncc(-c3cc4c5c(cnc4cc3F)N(C)C(=O)C53CCC3)cc2NS(C)(=O)=O)C1` [Example 331, N-(2-(3-(Ethylamino)azetidin-1-yl)-5-(7′-fluoro-3′-methyl-2′-oxo-2′,3′-dihydrospiro [cyclobutane-1,1′-pyrrolo [2,3-c]quinolin]-8′-yl)pyridin-3-yl)methanesulfonamide] are 0.5 to 1 nM and 1 to 100 nM.
Take `CC(C)NCCOc1ncc(-c2cc3c(cc2F)ncc2c3[C@]3(C[C@@H](c4cccnc4)C3)C(=O)N2C)cc1NS(C)(=O)=O` [Example 437, trans-N-{5-(7′-Fluoro-3′-methyl-2′-oxo-3-(pyridin-3-yl)-2′,3′-dihydrospiro[cyclobutane-1,1′-pyrrolo[2,3-c]quinolin]-8′-yl)-2-(2-(isopropylamino)ethoxy)pyridin-3-yl)methanesulfonamide]: the half-inhibitory concentration (IC50) against DNA-PK (20 μM ATP) is 1 to 100 nM; against ATM (setting [2]) it was more than 100 nM.
As for `Cc1ccc(S(=O)(=O)Nc2cc(-c3ccc4ncc5c(c4c3)C3(CCC3)C(=O)N5C)cnc2N2CCC(N(C)C)CC2)cn1` [Example 185, N-(2-(4-(Dimethylamino)piperidin-1-yl)-5-(3′-methyl-2′-oxo-2′,3′-dihydrospiro[cyclobutane-1,1′-pyrrolo[2,3-c]quinolin]-8′-yl)pyridin-3-yl)-6-methylpyridine-3-sulfonamide hydrochloride], the IC50 against DNA-PK (ATP 20 μM) was in the range of 0.5 to 1 nM; against ATM (setting [1]) it was 1 to 100 nM.
